In patent US10010623B2, “Lysosome-cleavable linker” (UCL Business PLC, priority 2012, dated 2018):

## O=C1OC(=O)C(Br)=C1Br [compound 1, 2,3-dibromo-maleic anhydride]
  melting point: 107 to 110 °C
